Experiments:
[1] = tested on: patients with metastatic urothelial carcinoma (mUC); experiment: Post hoc analysis of IMvigor130 biomarker-evaluable population: PD-L1 IHC assays (SP142, 22C3) and OS; type: in vivo, human
Description: Clinically relevant biomarkers are needed to predict outcomes with immunotherapy in metastatic urothelial carcinoma (mUC). Different PD-L1 assays use various methods (e.g., scoring tumor and/or immune cells) to evaluate anti-PD-L1/PD-1 outcomes. […] Thus, it was hypothesized that the SP142 and 22C3 assays may be differentially associated with OS in IMvigor130 patients, which may be related to PD-L1 localization on specific immune cells such as dendritic cells (DCs). This Example describes a post hoc analysis that studied associations between two PD-L1 IHC assays (i.e., VENTANA SP142 and Dako 22C3) and OS in the biomarker-evaluable population of the IMvigor130 study.
The biomarker-evaluable population in this analysis consisted of patients with archival tumors in Arms B and C (Jun. 14, 2020 cutoff) (Galsky et al. Cancer Res. 81 (13_Supplement): CT042, 2021). Formalin-fixed paraffin-embedded (FFPE) tumor specimens from eligible IMvigor130 study patients were prospectively tested for PD-L1 IHC expression by a central laboratory prior to randomization (see, Example 1 for additional information). The IHC scores had three categories (IC0, IC1, IC2/3). The study enrolled all eligible patients whose tissue is evaluable for expression testing, regardless of PD-L1 expression status.
PD-L1 expression was evaluated by IHC (CellCarta) using the SP142 (Ventana) and 22C3 (Dako) assays in 322 patients treated with atezolizumab monotherapy (Arm B) and 305 patients treated with placebo+platinum-based chemotherapy (Arm C). Samples were also stained for IC subtypes. Assay cutoffs for the SP142 assay were IC ≥5% (IC2/3) and <5% (IC0/1). For the 22C3 assay, cutoffs were CPS ≥10 and <10.
A subset of tumor samples were also stained by IHC for the dendritic cell marker DC-LAMP (Clone 1010E1.01, Novus Biologicals). In silico deconvolution by xCell (Aran et al. Genome Biol. 18 (1): 220, 2017) was performed. Statistical analysis was performed to compare OS between subgroups using the stratified log-rank test.

[2] = tested on: patients with untreated locally advanced or metastatic urothelial carcinoma; experiment: Phase III IMvigor130 study: overall survival, atezolizumab monotherapy (Arm B) vs placebo + platinum-based chemotherapy (Arm C); type: in vivo, human; conditions: 1L mUC, May 31, 2019 cutoff
Description: This Example describes the IMvigor130 study, which is a Phase III, multicenter, randomized, placebo-controlled, partially blind study designed to evaluate the efficacy of atezolizumab given as monotherapy or in combination with platinum-based chemotherapy versus placebo in combination with platinum-based chemotherapy in patients with locally advanced or metastatic urothelial carcinoma who have not received prior systemic therapy.
The primary efficacy objective for this study is to evaluate the efficacy of atezolizumab plus platinum-based chemotherapy compared with placebo plus platinum-based chemotherapy on the basis of the following endpoints: • Co-primary endpoints of progression-free survival (PFS) and overall survival (OS) • PFS is defined as the time from randomization to the first documented disease progression as determined by the investigator with use of RECIST v1.1, or death due to any cause, whichever occurs first. • OS is defined as the time from randomization to death due to any cause. […]
Randomization was stratified by the following factors: • PD-L1 status (IC0 (<1%) vs. IC1 (≥1% and <5%) vs. IC2/3 (≥5%)). • Bajorin model risk factor score/liver metastasis (0 vs. 1 vs. 2 or patients with liver metastasis). • Investigator-determined chemotherapy (gemcitabine and carboplatin vs. gemcitabine and cisplatin). […]

[3] = patients receiving atezolizumab monotherapy, biomarker-evaluable population, Jun. 14, 2020 cutoff
[4] = untreated locally advanced or metastatic UC

“atezolizumab: Fc-engineered, humanized, non-glycosylated IgG1 kappa immunoglobulin that binds PD-L1; heavy chain SEQ ID NO: 1, light chain SEQ ID NO: 2” was tested, and the “OS HR by 22C3 CPS scoring (CPS ≥10 versus CPS <10)” value [1, 3] was 0.83 (0.63, 1.10), the “OS HR by SP142 scoring (IC2/3 versus IC0/1)” value [1, 3] was 0.55 (0.39, 0.77) and the “OS in SP142 IC2/3 versus IC0/1 tumours” value ([1]; patients with mUC) was “longer OS”. The “OS by combined tumor status SP142 IC0/1 + 22C3 CPS ≥10” value [1, 4] was “shorter OS”, the “OS by combined tumor status SP142 IC2/3 + 22C3 CPS ≥10 (double positive)” value [1, 4] was “longer OS” and the “overall survival (OS) HR, atezolizumab monotherapy (Arm B) versus placebo+platinum-based chemotherapy (Arm C)” value ([2]; PD-L1 IC2/3 by SP142 IHC assay) was 0.68. The “overall survival (OS) HR, atezolizumab monotherapy (Arm B) versus placebo+platinum-based chemotherapy (Arm C)” value ([2]; PD-L1 IC2/3 cisplatin ineligible) was 0.53.

Reference: patent publication US20250257134A1, “THERAPEUTIC AND DIAGNOSTIC METHODS FOR BLADDER CANCER” (Genentech, Inc., priority 2022, published 2025)
